Measurements reported in patent US20170232083A1, “METHODS OF DIAGNOSIS AND TREATMENT OF CELIAC DISEASE IN CHILDREN” (priority 2014, published 2017).

Test system: PBMC (polyclonal gluten-specific T cells) of paediatric and adult CD patients
Test: IFN-γ ELISpot of PBMC after 3 day oral wheat challenge (SFU, % of maximal peptide response, dominance scores, EC50; Examples 5-6)
Assay type: cell-based, human
Conditions: for Cross-reactive T cell response: following wheat challenge
[1] = subject I (3-5yrs/6-10yrs part)
[2] = subject J (3-5yrs/6-10yrs part)
[3] = subject K (3-5yrs/6-10yrs part)
[4] = subject V (3-5yrs/6-10yrs part)
[5] = subject W (3-5yrs/6-10yrs part)
[6] = subject Y (3-5yrs/6-10yrs part)
[7] = subject five (3-5yrs/6-10yrs part)
[8] = subject seven (3-5yrs/6-10yrs part)
[9] = subject six (3-5yrs/6-10yrs part)
[10] = subject ten (3-5yrs/6-10yrs part)
[11] = subject two (3-5yrs/6-10yrs part)

Sequence	Cross-reactive T cell response (subject A, 11-17yrs) [SFU]	Cross-reactive T cell response (subject D, 11-17yrs) [SFU]	Significant response as a percentage of maximal peptide SFU (subject E, 11-17yrs)	Cross-reactive T cell response (subject E, 11-17yrs) [SFU]	Significant response as a percentage of maximal peptide SFU (subject F, 11-17yrs)	Cross-reactive T cell response (subject F, 11-17yrs) [SFU]	Cross-reactive T cell response (subject G, 11-17yrs) [SFU]	Cross-reactive T cell response (subject H) [SFU]	Cross-reactive T cell response [1] [SFU]	Significant response as a percentage of maximal peptide SFU (subject J)	Cross-reactive T cell response [2] [SFU]	Significant response as a percentage of maximal peptide SFU (subject K)	Cross-reactive T cell response [3] [SFU]	Cross-reactive T cell response (subject P, 11-17yrs) [SFU]	Significant response as a percentage of maximal peptide SFU (subject Q, 11-17yrs)	Cross-reactive T cell response (subject Q, 11-17yrs) [SFU]	Significant response as a percentage of maximal peptide SFU (subject T, 11-17yrs)	Cross-reactive T cell response (subject T, 11-17yrs) [SFU]	Significant response as a percentage of maximal peptide SFU (subject U, 11-17yrs)	Cross-reactive T cell response (subject U, 11-17yrs) [SFU]	also measured
QPFPQPEQPFSWQ	0	16	′ (11-20% = ′)	34	′ (11-20% = ′)	19	6	1	2	′′′ (41-70% = ′′′)	79	′′ (21-40% = ′′)	20	14	′′ (21-40% = ′′)	29	′′′ (41-70% = ′′′)	41	′′ (21-40% = ′′)	18	Significant response as a percentage of maximal peptide SFU (subject D, 11-17yrs): ′′′ (41-70% = ′′′); Significant response as a percentage of maximal peptide SFU (subject V): + (>70% = +); Cross-reactive T cell response [4]: 25 SFU; Cross-reactive T cell response [5]: 3 SFU; Cross-reactive T cell response [6]: 8 SFU; Significant response as a percentage of maximal peptide SFU (subject five): + (>70% = +); Cross-reactive T cell response [7]: 42 SFU; Cross-reactive T cell response (subject nine, 11-17yrs): 1 SFU; Cross-reactive T cell response [8]: 6 SFU; Cross-reactive T cell response [9]: 8 SFU; Cross-reactive T cell response [10]: 0 SFU; Significant response as a percentage of maximal peptide SFU (subject two): ′′ (21-40% = ′′); Cross-reactive T cell response [11]: 26 SFU
QPFPQPEQELPLQ	4	7	′′ (21-40% = ′′)	46	′ (11-20% = ′)	31	1	5	6	′′ (21-40% = ′′)	57	′ (11-20% = ′)	13	17	′ (11-20% = ′)	14	′′ (21-40% = ′′)	36	′ (11-20% = ′)	12	Cross-reactive T cell response [4]: 7 SFU; Cross-reactive T cell response [5]: 0 SFU; Cross-reactive T cell response [6]: 0 SFU; Cross-reactive T cell response [7]: 33 SFU; Cross-reactive T cell response (subject nine, 11-17yrs): 1 SFU; Cross-reactive T cell response [8]: 8 SFU; Cross-reactive T cell response [9]: 5 SFU; Significant response as a percentage of maximal peptide SFU (subject ten): + (>70% = +); Cross-reactive T cell response [10]: 15 SFU; Cross-reactive T cell response [11]: 9 SFU
